{
  "source": "ChEMBL document CHEMBL5325488",
  "about": "“Discovery of SMD-3040 as a Potent and Selective SMARCA2 PROTAC Degrader with Strong in vivo Antitumor Activity” (J Med Chem, 2023)",
  "key": {"[1]": {"target": "T1, von Hippel-Lindau disease tumor suppressor/SWI/SNF-related matrix-associated actin-dependent regulator of chromatin subfamily A member 2 (Homo sapiens, UniProt P51531+P40337)", "assay": "PROTAC activity at VHL/C-terminal HiBiT fused SMARCA2 in human HeLa cells assessed as induction of SMARCA2 degradation pre-treated with MLN4924 for 2 hrs followed by compound treatment for 24 hrs by Nano-Glo HiBiT analysis", "format": "cell-based"}, "[2]": {"target": "T2, von Hippel-Lindau disease tumor suppressor/SWI/SNF-related matrix-associated actin-dependent regulator of chromatin subfamily A member 4 (Homo sapiens, UniProt P51532+P40337)", "T2 sequence (P51532 whole entry)": "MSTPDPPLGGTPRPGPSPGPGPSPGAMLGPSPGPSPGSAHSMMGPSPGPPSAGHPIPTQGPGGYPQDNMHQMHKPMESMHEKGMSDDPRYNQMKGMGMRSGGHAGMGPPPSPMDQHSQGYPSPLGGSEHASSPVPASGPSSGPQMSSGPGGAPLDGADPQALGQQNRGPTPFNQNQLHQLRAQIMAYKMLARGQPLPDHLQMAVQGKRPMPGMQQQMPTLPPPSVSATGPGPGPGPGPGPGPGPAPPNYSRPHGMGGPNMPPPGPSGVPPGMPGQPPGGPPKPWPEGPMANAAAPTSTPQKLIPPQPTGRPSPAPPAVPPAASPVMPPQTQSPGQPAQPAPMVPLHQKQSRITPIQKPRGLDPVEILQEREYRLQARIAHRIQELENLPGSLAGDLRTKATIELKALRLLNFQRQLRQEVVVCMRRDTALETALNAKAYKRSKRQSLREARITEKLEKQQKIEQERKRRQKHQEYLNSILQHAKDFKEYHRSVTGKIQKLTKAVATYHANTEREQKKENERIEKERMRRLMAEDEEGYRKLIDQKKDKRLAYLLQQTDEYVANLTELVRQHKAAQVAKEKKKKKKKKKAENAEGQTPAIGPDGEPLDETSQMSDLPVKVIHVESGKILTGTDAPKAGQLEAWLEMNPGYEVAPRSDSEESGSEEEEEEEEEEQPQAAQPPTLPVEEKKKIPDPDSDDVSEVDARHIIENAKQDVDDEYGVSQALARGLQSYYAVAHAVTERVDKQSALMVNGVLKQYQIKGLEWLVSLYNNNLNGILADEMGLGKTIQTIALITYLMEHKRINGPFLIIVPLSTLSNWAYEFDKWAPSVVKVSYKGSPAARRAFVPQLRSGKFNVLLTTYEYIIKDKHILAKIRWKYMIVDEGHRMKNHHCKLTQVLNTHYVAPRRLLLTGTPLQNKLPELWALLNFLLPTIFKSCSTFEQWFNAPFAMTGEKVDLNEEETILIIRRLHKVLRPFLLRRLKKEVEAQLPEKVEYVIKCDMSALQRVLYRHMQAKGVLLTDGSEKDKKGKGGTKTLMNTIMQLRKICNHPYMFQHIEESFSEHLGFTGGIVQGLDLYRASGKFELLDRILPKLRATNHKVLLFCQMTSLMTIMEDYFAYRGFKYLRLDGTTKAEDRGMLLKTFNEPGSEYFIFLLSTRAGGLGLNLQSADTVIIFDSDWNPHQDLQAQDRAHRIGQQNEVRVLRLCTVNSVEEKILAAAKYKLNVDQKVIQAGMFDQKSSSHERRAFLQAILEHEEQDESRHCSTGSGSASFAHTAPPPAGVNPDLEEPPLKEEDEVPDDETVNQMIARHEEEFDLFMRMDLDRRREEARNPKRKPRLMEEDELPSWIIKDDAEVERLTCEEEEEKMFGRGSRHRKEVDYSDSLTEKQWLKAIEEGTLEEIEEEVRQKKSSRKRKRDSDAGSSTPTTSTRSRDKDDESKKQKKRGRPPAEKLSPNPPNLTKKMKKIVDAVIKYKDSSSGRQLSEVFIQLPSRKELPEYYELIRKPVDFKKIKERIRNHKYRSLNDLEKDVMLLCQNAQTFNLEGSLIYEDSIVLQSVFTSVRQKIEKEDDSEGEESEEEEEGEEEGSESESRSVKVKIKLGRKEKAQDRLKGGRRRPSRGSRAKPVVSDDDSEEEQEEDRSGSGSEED", "T2 sequence (P40337 whole entry)": "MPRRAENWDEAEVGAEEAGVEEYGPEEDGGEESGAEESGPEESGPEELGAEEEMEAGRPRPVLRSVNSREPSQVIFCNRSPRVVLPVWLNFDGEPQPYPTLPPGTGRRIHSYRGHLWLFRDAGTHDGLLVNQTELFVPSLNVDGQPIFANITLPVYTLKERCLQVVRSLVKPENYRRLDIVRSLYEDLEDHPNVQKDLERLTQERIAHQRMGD", "assay": "PROTAC activity at VHL/wild-type SMARCA4 in human SK-MEL-28 cells assessed as induction of SMARCA4 degradation incubated for 24 hrs by Western blotting analysis", "format": "cell-based"}, "[3]": {"target": "T2, von Hippel-Lindau disease tumor suppressor/SWI/SNF-related matrix-associated actin-dependent regulator of chromatin subfamily A member 4", "assay": "PROTAC activity at VHL/C-terminal HiBiT fused SMARCA4 in human HeLa cells assessed as induction of SMARCA4 degradation incubated for 24 hrs by Nano-Glo HiBiT analysis", "format": "cell-based"}, "[4]": {"target": "T1, von Hippel-Lindau disease tumor suppressor/SWI/SNF-related matrix-associated actin-dependent regulator of chromatin subfamily A member 2", "assay": "PROTAC activity at VHL/C-terminal HiBiT fused SMARCA2 in human HeLa cells assessed as induction of SMARCA2 degradation at 0.0001 to 1 uM incubated for 6 hrs by Nano-Glo HiBiT analysis relative to control", "format": "cell-based", "conditions": "dose 0.0001-1 µM"}, "[5]": {"target": "T1, von Hippel-Lindau disease tumor suppressor/SWI/SNF-related matrix-associated actin-dependent regulator of chromatin subfamily A member 2", "assay": "PROTAC activity at VHL/C-terminal HiBiT fused SMARCA2 in human HeLa cells assessed as induction of SMARCA2 degradation at 0.001 to 10 uM by Nano-Glo HiBiT analysis", "format": "cell-based", "conditions": "dose 0.001-10 µM, time 1-48 hrs, TDE = time-dependent effect"}, "[6]": {"target": "T1, von Hippel-Lindau disease tumor suppressor/SWI/SNF-related matrix-associated actin-dependent regulator of chromatin subfamily A member 2", "assay": "PROTAC activity at VHL/C-terminal HiBiT fused SMARCA2 in human HeLa cells assessed as induction of SMARCA2 degradation pre-treated with (2S,4R)-1-((S)-2-acetamido-3,3-dimethylbutanoyl)-4-hydroxy-N-((S)-1-(4-(4-methylthiazol-5-yl)phenyl)ethyl)pyrrolidine-2-carboxamide for 2 hrs followed by compound treatment for 24 hrs by Nano-Glo HiBiT analysis", "format": "cell-based"}, "[7]": {"target": "T1, von Hippel-Lindau disease tumor suppressor/SWI/SNF-related matrix-associated actin-dependent regulator of chromatin subfamily A member 2", "assay": "PROTAC activity at VHL/wild-type SMARCA2 in human SK-MEL-5 cells assessed as induction of SMARCA2 degradation incubated for 24 hrs by Western blotting analysis", "format": "cell-based"}, "[8]": {"target": "T1, von Hippel-Lindau disease tumor suppressor/SWI/SNF-related matrix-associated actin-dependent regulator of chromatin subfamily A member 2", "assay": "PROTAC activity at VHL/wild-type SMARCA2 in human SK-MEL-5 cells assessed as induction of SMARCA2 degradation at 0.001 to 1000 nM incubated for 24 hrs by Western blotting analysis relative to control", "format": "cell-based", "conditions": "dose 0.001-1000 nM"}, "[9]": {"test_system": "NCI-H838", "assay": "Antiproliferative activity against SMARCA4-deficient human NCI-H838 cells assessed as cell growth inhibition measured after 7 days by WST-8 assay", "format": "functional", "conditions": "NCI-H838, 168 h, time 7 day"}, "[10]": {"test_system": "NCI-H1793", "assay": "Antiproliferative activity against SMARCA4-deficient human NCI-H1793 cells assessed as cell growth inhibition measured after 7 days by WST-8 assay", "format": "functional", "conditions": "NCI-H1793, 168 h, time 7 day"}, "[11]": {"test_system": "SK-MEL-5", "assay": "Antiproliferative activity against SMARCA4-deficient human SK-MEL-5 cells assessed as cell growth inhibition measured after 7 days by WST-8 assay", "format": "functional", "conditions": "SK-MEL-5, 168 h, time 7 day"}, "[12]": {"test_system": "NCI-H1693", "assay": "Antiproliferative activity against SMARCA4-deficient human NCI-H1693 cells assessed as cell growth inhibition measured after 7 days by WST-8 assay", "format": "functional", "conditions": "NCI-H1693, 168 h, time 7 day"}, "[13]": {"target": "T1, von Hippel-Lindau disease tumor suppressor/SWI/SNF-related matrix-associated actin-dependent regulator of chromatin subfamily A member 2", "assay": "In vivo PROTAC activity at VHL/SMARCA2 in SCID mouse xenografted with human NCI-H838 cells assessed as reduction of SMARCA2 level in tumor at 50 mg/kg, iv administered as single dose measured after 3 hrs by Western blotting analysis", "format": "functional, organism-based", "set-up": "scale not given: the % may be the effect or the level left"}, "[14]": {"target": "T1, von Hippel-Lindau disease tumor suppressor/SWI/SNF-related matrix-associated actin-dependent regulator of chromatin subfamily A member 2", "assay": "In vivo PROTAC activity at VHL/SMARCA2 in SCID mouse xenografted with human NCI-H838 cells assessed as reduction of SMARCA2 level in tumor at 50 mg/kg, iv administered as single dose measured after 96 hrs by Western blotting analysis", "format": "functional, organism-based", "set-up": "scale not given: the % may be the effect or the level left"}, "[15]": {"target": "T1, von Hippel-Lindau disease tumor suppressor/SWI/SNF-related matrix-associated actin-dependent regulator of chromatin subfamily A member 2", "assay": "In vivo PROTAC activity at VHL/SMARCA2 in SCID mouse xenografted with human NCI-H838 cells assessed as remaining activity in tumor at 50 mg/kg, iv administered as single dose measured after 3 hrs by Western blotting analysis (reference value: 100 +/- 7% )", "format": "functional, organism-based"}, "[16]": {"target": "T1, von Hippel-Lindau disease tumor suppressor/SWI/SNF-related matrix-associated actin-dependent regulator of chromatin subfamily A member 2", "assay": "In vivo PROTAC activity at VHL/SMARCA2 in SCID mouse xenografted with human MV4-11 cells assessed as reduction of SMARCA2 level in tumor at 50 mg/kg, iv administered as single dose measured after 24 hrs by Western blotting analysis", "format": "ADME, organism-based", "set-up": "scale not given: the % may be the effect or the level left"}, "[17]": {"target": "T1, von Hippel-Lindau disease tumor suppressor/SWI/SNF-related matrix-associated actin-dependent regulator of chromatin subfamily A member 2", "assay": "In vivo PROTAC activity at VHL/SMARCA2 in SCID mouse xenografted with human MV4-11 cells assessed as reduction of SMARCA2 level in tumor at 50 mg/kg, iv administered as single dose measured after 72 hrs by Western blotting analysis", "format": "ADME, organism-based", "set-up": "scale not given: the % may be the effect or the level left"}, "[18]": {"target": "T1, von Hippel-Lindau disease tumor suppressor/SWI/SNF-related matrix-associated actin-dependent regulator of chromatin subfamily A member 2", "assay": "In vivo PROTAC activity at VHL/SMARCA2 in SCID mouse xenografted with human MV4-11 cells assessed as remaining activity in tumor at 50 mg/kg, iv administered as single dose measured after 6 hrs by Western blotting analysis (reference value: 100 +/- 15 % )", "format": "ADME, organism-based"}, "[19]": {"target": "T2, von Hippel-Lindau disease tumor suppressor/SWI/SNF-related matrix-associated actin-dependent regulator of chromatin subfamily A member 4", "assay": "In vivo PROTAC activity at VHL/SMARCA4 in SCID mouse xenografted with human MV4-11 cells assessed as reduction of SMARCA4 level in tumor at 50 mg/kg, iv administered as single dose measured after 24 hrs by Western blotting analysis", "format": "ADME, organism-based", "set-up": "scale not given: the % may be the effect or the level left"}, "[20]": {"target": "T2, von Hippel-Lindau disease tumor suppressor/SWI/SNF-related matrix-associated actin-dependent regulator of chromatin subfamily A member 4", "assay": "In vivo PROTAC activity at VHL/SMARCA4 in SCID mouse xenografted with human MV4-11 cells assessed as reduction of SMARCA4 level in tumor at 50 mg/kg, iv administered as single dose measured after 96 hrs by Western blotting analysis", "format": "ADME, organism-based", "set-up": "scale not given: the % may be the effect or the level left"}, "[21]": {"assay": "Drug concentration in SCID mouse plasma xenografted with human MV4-11 cells at 50 mg/kg, iv measured after 2 hrs by LC-MS/MS method", "format": "ADME, organism-based"}, "[22]": {"assay": "Drug concentration in SCID mouse plasma xenografted with human MV4-11 cells at 50 mg/kg, iv measured after 6 hrs by LC-MS/MS method", "format": "ADME, organism-based"}, "[23]": {"assay": "Drug concentration in SCID mouse plasma xenografted with human MV4-11 cells at 50 mg/kg, iv measured after 72 hrs by LC-MS/MS method", "format": "ADME, organism-based"}, "[24]": {"assay": "Drug concentration in SCID mouse plasma xenografted with human MV4-11 cells at 50 mg/kg, iv measured after 96 hrs by LC-MS/MS method", "format": "ADME, organism-based"}, "[25]": {"assay": "Drug concentration in SCID mouse tumor xenografted with human MV4-11 cells at 50 mg/kg, iv measured after 6 hrs by LC-MS/MS method", "format": "ADME, organism-based, Neoplasm", "conditions": "read-out: Ct"}, "[26]": {"assay": "Drug concentration in SCID mouse tumor xenografted with human MV4-11 cells at 50 mg/kg, iv measured after 24 hrs by LC-MS/MS method", "format": "ADME, organism-based, Neoplasm", "conditions": "read-out: Ct"}, "[27]": {"assay": "Toxicity in SCID mouse xenografted with human SK-MEL-5 cells assessed as effect on change in body weight at 50 mg/kg, iv administered twice a week measured after 3 weeks", "format": "organism-based", "conditions": "in vivo, 504 h"}},
  "note": "The source made the active and inactive calls. The rule behind the calls is not given here.",
  "data": [
    {"compound": "Cc1ncsc1-c1ccc([C@H](C)NC(=O)[C@@H]2C[C@@H](O)CN2C(=O)[C@@H](NC(=O)[C@H]2CC[C@H](CN3CC4(CCC(n5cc(-c6cc(-c7ccccc7O)nnc6N)cn5)CC4)C3)CC2)C(C)(C)C)cc1", "values": [
      {"measurement": "Activity", "setting": "[1]", "value": "inactive"},
      {"measurement": "DC50", "setting": "[2]", "value": "> 1", "unit": "µM"},
      {"measurement": "DC50", "setting": "[3]", "value": "> 0.339", "unit": "µM"},
      {"measurement": "Emax", "setting": "[4]", "value": 80, "unit": "%"},
      {"measurement": "Activity", "setting": "[5]", "value": "Tde"},
      {"measurement": "Activity", "setting": "[6]", "value": "inactive"},
      {"measurement": "DC50", "setting": "[7]", "value": 0.02, "unit": "µM"},
      {"measurement": "Emax", "setting": "[8]", "value": 94, "unit": "%"},
      {"measurement": "GI50", "setting": "[9]", "value": 0.119, "unit": "µM"},
      {"measurement": "GI50", "setting": "[10]", "value": 0.021, "unit": "µM"},
      {"measurement": "GI50", "setting": "[11]", "value": 0.015, "unit": "µM"},
      {"measurement": "GI50", "setting": "[12]", "value": 0.015, "unit": "µM"},
      {"measurement": "Activity", "setting": "[13]", "value": 70, "unit": "%"},
      {"measurement": "Activity", "setting": "[14]", "value": 67, "unit": "%"},
      {"measurement": "Activity", "setting": "[15]", "value": 30, "unit": "%"},
      {"measurement": "Activity", "setting": "[16]", "value": 86, "unit": "%"},
      {"measurement": "Activity", "setting": "[17]", "value": 56, "unit": "%"},
      {"measurement": "Activity", "setting": "[18]", "value": 30, "unit": "%"},
      {"measurement": "Activity", "setting": "[19]", "value": 29, "unit": "%"},
      {"measurement": "Activity", "setting": "[20]", "value": 16, "unit": "%"},
      {"measurement": "concentration at 2 h", "setting": "[21]", "value": 2.73, "unit": "µg/mL"},
      {"measurement": "concentration at 6 h", "setting": "[22]", "value": 0.766, "unit": "µg/mL"},
      {"measurement": "concentration at 72 h", "setting": "[23]", "value": 0.0067, "unit": "µg/mL"},
      {"measurement": "concentration at 96 h", "setting": "[24]", "value": 0.0196, "unit": "µg/mL"},
      {"measurement": "concentration at 6 h", "setting": "[25]", "value": 1100, "unit": "ng/g"},
      {"measurement": "concentration at 24 h", "setting": "[26]", "value": 2960, "unit": "ng/g"},
      {"measurement": "Activity", "setting": "[27]", "value": "Non-Toxic"}
    ]}
  ]
}
